In ChEMBL document CHEMBL1145463, “Clonal spread of mef-positive macrolide-resistant Streptococcus pneumoniae isolates causing invasive disease in adults in Germany” (2007):
≈ marks a conversion by molar mass, not a printed value.

Test system: Streptococcus pneumoniae
Assay: Antibacterial activity against telithromycin-susceptible Streptococcus pneumoniae
Assay type: functional

SMILES: CC[C@H]1OC(=O)[C@H](C)C(=O)[C@H](C)[C@@H](O[C@@H]2O[C@H](C)C[C@H](N(C)C)[C@H]2O)[C@](C)(OC)C[C@@H](C)C(=O)[C@H](C)[C@H]2N(CCCCn3cnc(-c4cccnc4)c3)C(=O)O[C@]12C [TELITHROMYCIN]
- MIC90: 0.12 µg/mL (≈ 0.148 µM)
